In patent US12325710B2, “Substituted 1,2,3,4,5,6-hexahydroazepino[4,5-b]indoles for treating brain disorders” (priority 2019, dated 2025):
Entries after “also recorded” stand apart in the source; their conditions may differ.

How the values were obtained:
larval zebrafish [1] = experiment: Larval zebrafish movement activity during a battery of light and acoustic stimuli
Excerpt: Stimuli applied over time are indicated under the heatmaps. Colors indicate bright LED light of respective colors, black traces represent the waveforms of acoustic stimuli, and gray vertical lines indicate physical tapping as secondary acoustic stimuli.
Response is […] proportional to classification accuracy; 0-20% indicates no ability and 100% indicates perfect classification. […] The solid line denotes the median and the shading denotes a 95th percentile confidence interval calculated by bootstrap. N=8 wells/condition (64 animals/condition).

human 5-HT2A receptors = human 5-HT2A receptors (Homo sapiens, UniProt P28223); experiment: 5-HT2A Gq-mediated calcium flux functional assay (human); assay type: cell-based
Sequence of human 5-HT2A receptors (P28223 whole entry, canonical isoform): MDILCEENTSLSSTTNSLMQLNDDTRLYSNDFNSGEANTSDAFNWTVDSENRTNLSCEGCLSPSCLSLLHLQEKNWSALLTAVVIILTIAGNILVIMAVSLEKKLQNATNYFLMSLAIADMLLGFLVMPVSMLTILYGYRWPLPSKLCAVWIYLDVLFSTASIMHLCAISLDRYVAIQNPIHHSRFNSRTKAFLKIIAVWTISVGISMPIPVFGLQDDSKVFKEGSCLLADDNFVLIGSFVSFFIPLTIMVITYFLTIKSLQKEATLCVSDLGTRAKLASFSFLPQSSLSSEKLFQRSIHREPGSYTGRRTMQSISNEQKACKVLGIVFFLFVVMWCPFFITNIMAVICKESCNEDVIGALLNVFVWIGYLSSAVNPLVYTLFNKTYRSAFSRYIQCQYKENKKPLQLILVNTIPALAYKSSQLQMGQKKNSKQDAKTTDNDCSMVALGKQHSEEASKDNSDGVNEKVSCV
Procedure: (§1) Serotonin and Opioid Receptor Functional Assays. Functional assay screens at 5-HT and opioid receptors were performed in parallel using the same compound dilutions and 384-well format high-throughput assay platforms. Assays assessed activity at all human isoforms of the receptors, except where noted for the mouse 5-HT2A receptor. Receptor constructs in pcDNA vectors were generated from the Presto-Tango GPCR library with minor modifications. All compounds were serially diluted in drug buffer (HBSS, 20 mM HEPES, pH 7.4 supplemented with 0.1% bovine serum albumin and 0.01% ascorbic acid) and dispensed into 384-well assay plates using a FLIPR^TETRA (Molecular Devices). Every plate included a positive control such as 5-HT (for all 5-HT receptors), DADLE (DOR), salvinorin A (KOR), and DAMGO (MOR). For measurements of 5-HT2A, 5-HT2B, and 5-HT2C Gq-mediated calcium flux function, HEK Flp-In 293 T-Rex stable cell lines (Invitrogen) were loaded with Fluo-4 dye for one hour, stimulated with compounds and read for baseline (0-10 seconds) and peak fold-over-basal fluorescence (5 minutes) at 25° C. on the FLIPR^TETRA. For measurement of 5-HT6 and 5-HT7a functional assays, Gs-mediated cAMP accumulation was detected using the split-luciferase GloSensor assay in HEKT cells measuring luminescence on a Microbeta Trilux (Perkin Elmer) with a 15 min drug incubation at 25° C. […]

5-HT2B receptors = 5-HT2B receptors (Homo sapiens, UniProt P41595); experiment: 5-HT2B Gq-mediated calcium flux functional assay; assay type: cell-based
Sequence of 5-HT2B receptors (P41595 whole entry, canonical isoform): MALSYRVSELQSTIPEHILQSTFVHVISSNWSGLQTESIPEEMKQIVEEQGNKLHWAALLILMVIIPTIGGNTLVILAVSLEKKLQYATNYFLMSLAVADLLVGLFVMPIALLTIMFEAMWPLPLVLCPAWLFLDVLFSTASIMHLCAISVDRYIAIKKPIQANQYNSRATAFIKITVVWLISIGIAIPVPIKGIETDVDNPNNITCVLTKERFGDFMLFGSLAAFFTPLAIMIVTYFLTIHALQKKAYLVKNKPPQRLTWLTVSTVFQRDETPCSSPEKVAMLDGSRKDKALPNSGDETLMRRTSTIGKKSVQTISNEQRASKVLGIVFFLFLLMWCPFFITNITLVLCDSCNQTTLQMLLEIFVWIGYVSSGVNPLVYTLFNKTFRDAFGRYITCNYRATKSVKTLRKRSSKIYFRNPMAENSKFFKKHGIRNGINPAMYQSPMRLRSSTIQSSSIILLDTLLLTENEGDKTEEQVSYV
Procedure: Serotonin and Opioid Receptor Functional Assays. Functional assay screens at 5-HT and opioid receptors were performed in parallel using the same compound dilutions and 384-well format high-throughput assay platforms. Assays assessed activity at all human isoforms of the receptors, except where noted for the mouse 5-HT2A receptor. Receptor constructs in pcDNA vectors were generated from the Presto-Tango GPCR library with minor modifications. All compounds were serially diluted in drug buffer (HBSS, 20 mM HEPES, pH 7.4 supplemented with 0.1% bovine serum albumin and 0.01% ascorbic acid) and dispensed into 384-well assay plates using a FLIPR^TETRA (Molecular Devices). Every plate included a positive control such as 5-HT (for all 5-HT receptors), DADLE (DOR), salvinorin A (KOR), and DAMGO (MOR). For measurements of 5-HT2A, 5-HT2B, and 5-HT2C Gq-mediated calcium flux function, HEK Flp-In 293 T-Rex stable cell lines (Invitrogen) were loaded with Fluo-4 dye for one hour, stimulated with compounds and read for baseline (0-10 seconds) and peak fold-over-basal fluorescence (5 minutes) at 25° C. on the FLIPR^TETRA. For measurement of 5-HT6 and 5-HT7a functional assays, Gs-mediated cAMP accumulation was detected using the split-luciferase GloSensor assay in HEKT cells measuring luminescence on a Microbeta Trilux (Perkin Elmer) with a 15 min drug incubation at 25° C. For 5-HT1A, 5-HT1B, 5-HT1F, MOR, KOR, and DOR functional assays, Gi/o-mediated cAMP inhibition was measured using the split-luciferase GloSensor assay in HEKT cells, conducted similarly as above, but in combination with either 0.3 μM isoproterenol (5-HT1A, 5-HT1B, 5-HT1F) or 1 μM forskolin (MOR, KOR, and DOR) to stimulate endogenous cAMP accumulation. For measurement of 5-HT1D, 5-HT1E, 5-HT4, and 5-HT5A functional assays, β-arrestin2 recruitment was measured by the Tango assay utilizing HTLA cells expressing TEV fused-β-arrestin2, as described previously with minor modifications. […]

[2] = tested on: opioid receptors (MOR, KOR, DOR); experiment: Opioid receptor functional assays (Gi/o-mediated cAMP inhibition); assay type: cell-based, human
Procedure: as §1

5-HT1A = molecular target: T1, 5-HT1A (Homo sapiens, UniProt P08908); experiment: 5-HT1A functional assay (Gi/o-mediated cAMP inhibition); assay type: cell-based
T1 construct: expressed in transfected cells; host or cells: HEKT cells (GloSensor cAMP assay)
T1 sequence (P08908 1-422): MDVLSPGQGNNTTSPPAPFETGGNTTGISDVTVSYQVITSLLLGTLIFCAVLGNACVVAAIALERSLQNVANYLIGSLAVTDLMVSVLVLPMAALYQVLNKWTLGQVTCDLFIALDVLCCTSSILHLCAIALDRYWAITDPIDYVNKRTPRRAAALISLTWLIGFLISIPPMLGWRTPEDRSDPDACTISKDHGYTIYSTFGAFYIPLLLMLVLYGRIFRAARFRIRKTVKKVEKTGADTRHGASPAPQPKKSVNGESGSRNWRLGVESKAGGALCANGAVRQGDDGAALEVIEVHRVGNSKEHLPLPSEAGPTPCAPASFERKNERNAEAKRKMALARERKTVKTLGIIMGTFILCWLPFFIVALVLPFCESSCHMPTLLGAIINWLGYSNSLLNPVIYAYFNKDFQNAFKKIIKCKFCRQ
Procedure: as §1

[3] = tested on: rat embryonic cortical neurons (DIV20); experiment: Spinogenesis in mature cortical cultures (DIV20); assay type: cell-based; conditions: DIV20, treatment for 24 h
Procedure: Spinogenesis Experiments. Spinogenesis experiments were performed as previously described with the exception that cells were treated on DIV19 and fixed 24 h after treatment on DIV20. (Ly, C. et al., 2018) The images were taken on a Nikon HCA Confocal microscope a with a 100×/NA 1.45 oil objective. DMSO and ketamine (10 μM) were used as vehicle and positive controls, respectively.

C57/BL6J mice = experiment: Two-bottle choice alcohol consumption (binge drinking); assay type: in vivo, mouse
Procedure: Alcohol Consumption. Male C57/BL6J mice (6-8 weeks old) were obtained from The Jackson Laboratory (Bar Harbor, ME) and were individually housed in a reverse light/dark cycle room (lights on […]). Temperature was kept constant at 22±2° C., and relative humidity was maintained at 50±5%. Mice were given access to food and tap water ad libitum. After one week of habituation to the vivarium, the two-bottle choice alcohol-drinking paradigm was conducted as described previously. For 7 weeks, mice were given intermittent access in their home cage to alcohol. On Mondays, Wednesdays, and Fridays, two bottles were made available for 24 h—one containing 20% ethanol and another containing only water. On Tuesdays, Thursdays, Saturdays, and Sundays, the animals were only given access to water. After 7 weeks, mice were administered TBG (50 mg/kg) or vehicle (saline) via intraperitoneal injection 3 h before the beginning of a drinking session. Ethanol (g/kg) and water (ml/kg) intake were monitored during the first 4 h (initial binge), the first 24 h, and the second 24 h. Next, the animals were only given water for 48 h before the start of another drinking session when ethanol and water consumption was monitored. The placement (right or left) of the bottles was altered in each session to control for side preference. Spillage was monitored using an additional bottle in a nearby unused cage. Alcohol preference was calculated as the ratio between alcohol/(water+alcohol). Mice were tested using a counterbalanced, within subject design with one week of drug-free alcohol drinking regimen between treatments. One mouse was excluded because the bottle was leaking.

physchem = conditions: saline or isotonic
C57BL/6J mice = experiment: Head-twitch response (HTR) assay; conditions: intraperitoneal; fumarate salts; 5-MeO-DMT 10 mg/kg as positive control
larval zebrafish [4] = experiment: Heart rate and arrhythmia in immobilized larval zebrafish

COc1ccc2c3c([nH]c2c1)CCN(C)CC3 [TBG]
behavioral phenotype at highest concentration versus lethal control (larval zebrafish [1]; 200 μM): did not produce this phenotype | behavioral phenotype with increasing concentration versus vehicle and lethal control (eugenol, 100 μM) (larval zebrafish [1]; 1 h treatment, concentration-response): do not produce movement responses in larval zebrafish similar to a lethal concentration of eugenol | machine learning classification of movement responses (larval zebrafish [1]; highest concentrations (200 μM)): more similar to vehicle controls than to ibogaine, noribogaine, or lethal controls | agonist activity at human 5-HT2A receptors (human 5-HT2A receptors): potent agonist activity | activity mode at 5-HT2B receptors (5-HT2B receptors): antagonists | opioid agonist activity [2]: weak or no opioid agonist activity | 5-HT1A agonist activity compared to 5-MeO-DMT (5-HT1A): weaker 5-HT1A and 5-HT2C agonist activity | dendritic spine density [3]: increases dendritic spine density to a comparable extent as ibogaine | EtOH consumption in the days following administration (C57/BL6J mice; TBG 50 mg/kg i.p.): long-lasting decreases in EtOH consumption; also recorded: lower for at least two days | EtOH preference during binge drinking session (C57/BL6J mice; TBG 50 mg/kg i.p.): reduces EtOH consumption and preference | water intake (C57/BL6J mice; TBG 50 mg/kg i.p.): without impacting H2O intake; also recorded: not affected | EtOH consumption during binge drinking session (C57/BL6J mice; first 4 h, TBG 50 mg/kg i.p. 3 h before session): reduces EtOH consumption and preference; also recorded: robustly reduces binge drinking | solubility (physchem): ≥ 40 mg/mL | hallucinogenic potential (head-twitch response) (C57BL/6J mice): did not display hallucinogenic potential | heart rate (bradycardia) (larval zebrafish [4]): Neither IBG nor TBG induced these undesirable phenotypes; also recorded: do not induce bradycardia | likelihood of arrhythmias (ratio of atrium to ventricle BPM) (larval zebrafish [4]): Neither IBG nor TBG induced these undesirable phenotypes
